ChEMBL document CHEMBL6153025, “Multidrug-resistant bacteria quorum-sensing inhibitors: A particular focus on Pseudomonasaeruginosa” (Eur J Med Chem, 2025)
Converted amounts (≈) assume the structure as drawn. Blank lines part the entries; values can stand above or below the compound they belong to.

Columns and labels:
Bacillus subtilis = experiment: Antibacterial activity against Bacillus subtilis; type: functional
Bacillus pumilus = experiment: Antibacterial activity against Bacillus pumilus; type: functional
Staphylococcus aureus [1] = experiment: Antibacterial activity against Methicillin-sensitive Staphylococcus aureus; type: functional
Staphylococcus aureus [2] = experiment: Antibacterial activity against Methicillin-resistant Staphylococcus aureus; type: functional
Escherichia coli = experiment: Antibacterial activity against Escherichia coli; type: functional
Pseudomonas aeruginosa [3] = experiment: Antibacterial activity against Pseudomonas aeruginosa; type: functional
Pseudomonas aeruginosa [4] = experiment: Antibiofilm activity against Pseudomonas aeruginosa PA14 assessed as reduction in biofilm biomass production at 18 ug/ml relative to control; type: functional; parameters: scale not given: the % may be the effect or the level left; conditions: dose 18 µg/ml
Pseudomonas aeruginosa [5] = experiment: Antivirulence activity in Pseudomonas aeruginosa PAO1 assessed as reduction in pyocyanin production at 10 uM incubated for 24 hrs by absorbance based analysis relative to control; type: functional; parameters: scale not given: the % may be the effect or the level left
Pseudomonas aeruginosa [6] = experiment: Antibacterial activity against Pseudomonas aeruginosa ATCC 15442 assessed as reduction in bacterial cell growth incubated for 24 hrs by two fold serial microdilution method; type: functional
[7] = Inhibition of quorum sensing system in Pseudomonas aeruginosa PAO1
Pseudomonas aeruginosa [8] = experiment: Antibiofilm activity against Pseudomonas aeruginosa ATCC 27853 assessed as reduction in biofilm biomass at 16 ug/ml relative to control; type: functional; parameters: scale not given: the % may be the effect or the level left; conditions: dose 16 µg/ml
[9] = Inhibition of quorum sensing system in Pseudomonas aeruginosa PAO1 expressing lasB-gfp
Pseudomonas aeruginosa [10] = experiment: Antibacterial activity against Pseudomonas aeruginosa PAO1-L; type: functional, organism-based
Pseudomonas aeruginosa [11] = experiment: Anti-virulence activity against Pseudomonas aeruginosa PAO1-L assessed as reduction in pyocyanin production at 10 uM incubated for 24 hrs by absorbance based analysis relative to control; type: functional; parameters: scale not given: the % may be the effect or the level left
Pseudomonas aeruginosa [12] = experiment: Antimicrobial activity against Pseudomonas aeruginosa PAO1 assessed as inhibition of bacterial growth measured for 18 hrs by CLSI-based broth microdilution method; type: functional
Pseudomonas aeruginosa [13] = experiment: Antibacterial activity against Pseudomonas aeruginosa PAO1 assessed as reduction in bacterial growth by broth microdilution method; type: functional, organism-based
Pseudomonas aeruginosa [14] = experiment: Antimicrobial activity against Pseudomonas aeruginosa assessed as reduction in microbial growth; type: functional, organism-based
Pseudomonas aeruginosa [15] = experiment: Antibiofilm activity against Pseudomonas aeruginosa assessed as reduction in biofilm formation incubated for 24 hrs relative to control; type: functional; parameters: scale not given: the % may be the effect or the level left
Pseudomonas aeruginosa [16] = experiment: Antivirulence activity against Pseudomonas aeruginosa PAO1 assessed as reduction in pyocyanin level at 10 uM relative to control; type: functional; parameters: scale not given: the % may be the effect or the level left
Pseudomonas aeruginosa [17] = experiment: Anti-virulence effect in Pseudomonas aeruginosa PAO1 assessed as inhibition of rhamnolipid production at 10 uM relative to control; type: functional; parameters: scale not given: the % may be the effect or the level left

SMILES: O=C(CCCCCOc1ccc([N+](=O)[O-])cc1)NNC(=O)Cn1c(=O)oc2ncccc21
MIC (Bacillus subtilis): > 512 µg/mL | MIC (Bacillus pumilus): > 512 µg/mL | MIC (Staphylococcus aureus [1]): > 512 µg/mL | MIC (Staphylococcus aureus [2]): > 512 µg/mL | MIC (Escherichia coli): > 512 µg/mL | MIC (Pseudomonas aeruginosa [3]): > 512 µg/mL

SMILES: COc1cc(/C=C/c2ccc(S(F)(F)(F)(F)F)cc2)c(C(=O)O)c(O)c1CC=C(C)C
Activity (Pseudomonas aeruginosa [4]): 50%

SMILES: CC(=O)NCCCCCCCCNc1ccnc2cc(Cl)ccc12
Activity (Pseudomonas aeruginosa [5]): 42% | MIC (Pseudomonas aeruginosa [6]): > 2 µM

IC50 [7]: 37.6 µM
SMILES: O=C(CNc1ccc(C(=O)/C=C/c2ccccc2Br)cc1)N[C@@H]1CCOC1=O

SMILES: O=C(/C=C/c1ccc(O)c(O)c1)OCCc1ccc(Cl)cc1
Activity (Pseudomonas aeruginosa [8]): 30.41%

SMILES: COc1cc(/C=C/C2C(C)=NC(C)=CN2C)c(C(=O)O)c(O)c1CC=C(C)C (stereo unspecified)
Activity (Pseudomonas aeruginosa [4]): 59.68%

IC50 [7]: 46.8 µM
SMILES: O=C(CNc1ccc(C(=O)/C=C/c2ccc(F)cc2)cc1)N[C@@H]1CCOC1=O

SMILES: N#CCc1ccc(OC[C@@H](O)Cn2cnc3ccc(Cl)cc3c2=O)cc1
IC50 [9]: 7 µM | IC50 (Pseudomonas aeruginosa [10]): 4.3 µM | Activity (Pseudomonas aeruginosa [11]): 95%

IC50 [9]: 2.4 µM | IC50 (Pseudomonas aeruginosa [10]): 4.3 µM
SMILES: N#CCc1ccc(OCC(N)Cn2cnc3ccc(Cl)cc3c2=O)cc1 (stereo unspecified)

MIC (Pseudomonas aeruginosa [12]): 0.48 µg/mL (≈ 1.78 µM)
SMILES: O=c1cc(-c2ccc(O)cc2)oc2cc(O)cc(O)c12 [APIGENIN]

MIC (Pseudomonas aeruginosa [13]): 5 µM (≈ 2.03 µg/mL)
SMILES: CC(C)c1ccc(/C=C/C(=O)c2ccc(NCC(=O)N[C@@H]3CCOC3=O)cc2)cc1

SMILES: O=[N+]([O-])c1ccc(CNCCCCCCCCNc2ccnc3cc(Cl)ccc23)cc1
Activity (Pseudomonas aeruginosa [5]): 97% | MIC (Pseudomonas aeruginosa [6]): > 2 µM

MIC (Pseudomonas aeruginosa [13]): 5 µM (≈ 2.1 µg/mL)
SMILES: O=C(CN[C@H]1CCOC1=O)Nc1ccc(C/C=C/c2ccc(Cl)c(Cl)c2)cc1

SMILES: O=C1O/C(=C\Br)C=C1Br
IC50 (Pseudomonas aeruginosa [13]): 17.4 µM

SMILES: Nc1ccc(S(=O)(=O)Nc2ccc3c(c2)OC2C=C(O)C=C(O)C2C3=O)cc1 (stereo unspecified)
IC50 (Pseudomonas aeruginosa [14]): 100 µM | Activity (Pseudomonas aeruginosa [15]): 50%

SMILES: COc1cc(/C=C/c2cn(Cc3ccccc3)nn2)c(C(=O)O)c(O)c1CC=C(C)C
Activity (Pseudomonas aeruginosa [4]): 51.38%

IC50 [7]: 56.5 µM
SMILES: COc1cccc(/C=C/C(=O)c2ccc(NCC(=O)N[C@@H]3CCOC3=O)cc2)c1

SMILES: O=C(CCCCCOc1ccc(C(F)(F)F)cc1)NNC(=O)Cn1c(=O)oc2ncccc21
MIC (Bacillus subtilis): > 512 µg/mL | MIC (Bacillus pumilus): > 512 µg/mL | MIC (Staphylococcus aureus [1]): > 512 µg/mL | MIC (Staphylococcus aureus [2]): > 512 µg/mL | MIC (Escherichia coli): > 512 µg/mL | MIC (Pseudomonas aeruginosa [3]): > 512 µg/mL | Activity (Pseudomonas aeruginosa [16]): 53.1%

SMILES: CCCCCCCCCCC(=O)NN1C(=O)CN(c2ccccc2O)C1=O
MIC (Bacillus subtilis): > 512 µg/mL | MIC (Bacillus pumilus): > 512 µg/mL | MIC (Staphylococcus aureus [1]): > 512 µg/mL | MIC (Escherichia coli): > 512 µg/mL | MIC (Pseudomonas aeruginosa [3]): > 512 µg/mL | Activity (Pseudomonas aeruginosa [16]): 38.62% | Activity (Pseudomonas aeruginosa [17]): 2.76%

IC50 [7]: 62.5 µM
SMILES: O=C(CNc1ccc(C(=O)/C=C/c2ccccc2)cc1)N[C@@H]1CCOC1=O

SMILES: COc1cc(/C=C/c2cncnc2)c(C(=O)O)c(O)c1CC=C(C)C
Activity (Pseudomonas aeruginosa [4]): 36.11%

MIC (Pseudomonas aeruginosa [13]): 5 µM (≈ 1.75 µg/mL)
SMILES: O=C(CN[C@H]1CCOC1=O)Nc1ccc(C/C=C/c2ccccc2)cc1

IC50 [7]: 46.8 µM
SMILES: O=C(CNc1ccc(C(=O)/C=C/c2ccc(Cl)cc2)cc1)N[C@@H]1CCOC1=O

SMILES: O=C(O)CCc1ccc(O)c(O)c1 [DIHYDROCAFFEIC ACID]
Activity (Pseudomonas aeruginosa [8]): 19.82%

SMILES: O=C1c2ccc(NS(=O)(=O)c3ccc(F)cc3)cc2OC2C=C(O)C=C(O)C12 (stereo unspecified)
IC50 (Pseudomonas aeruginosa [14]): 100 µM | Activity (Pseudomonas aeruginosa [15]): 78%

SMILES: O=C1c2ccc(NS(=O)(=O)c3ccc(Cl)cc3)cc2OC2C=C(O)C=C(O)C12 (stereo unspecified)
IC50 (Pseudomonas aeruginosa [14]): 100 µM | Activity (Pseudomonas aeruginosa [15]): 50%

MIC (Pseudomonas aeruginosa [13]): 5 µM (≈ 2.2 µg/mL)
SMILES: O=C(CNc1ccc(C(=O)/C=C/c2ccc(-c3ccccc3)cc2)cc1)N[C@@H]1CCOC1=O

SMILES: COc1cc(O)c(C(=O)O)c(CCc2ccc(S(F)(F)(F)(F)F)cc2)c1
Activity (Pseudomonas aeruginosa [4]): 19.48%

MIC (Pseudomonas aeruginosa [12]): 0.48 µg/mL (≈ 1.78 µM)
SMILES: O=c1c(-c2ccc(O)cc2)coc2cc(O)cc(O)c12 [GENISTEIN]

IC50 [7]: 46.8 µM
SMILES: O=C(CNc1ccc(C(=O)/C=C/c2cc(Cl)cc(Cl)c2)cc1)N[C@@H]1CCOC1=O

SMILES: O=C(CCCCCOc1ccc(Cl)cc1)NNC(=O)Cn1c(=O)oc2ncccc21
MIC (Bacillus subtilis): > 512 µg/mL | MIC (Bacillus pumilus): > 512 µg/mL | MIC (Staphylococcus aureus [1]): > 512 µg/mL | MIC (Staphylococcus aureus [2]): > 512 µg/mL | MIC (Escherichia coli): > 512 µg/mL | MIC (Pseudomonas aeruginosa [3]): > 512 µg/mL

SMILES: Clc1ccc2c(NCCCCCCCCNCc3csc4ccccc34)ccnc2c1
Activity (Pseudomonas aeruginosa [5]): 97% | MIC (Pseudomonas aeruginosa [6]): > 2 µM

SMILES: Cc1ccc(CCOC(=O)/C=C/c2ccc(O)c(O)c2)cc1
Activity (Pseudomonas aeruginosa [8]): 22.67%

IC50 [7]: 46.8 µM
SMILES: O=C(CNc1ccc(C(=O)/C=C/c2ccc(Cl)c(Cl)c2)cc1)N[C@@H]1CCOC1=O

SMILES: COc1ccc(OCCCCC(=O)NNC(=O)Cn2c(=O)oc3ncccc32)cc1
MIC (Bacillus subtilis): > 512 µg/mL | MIC (Bacillus pumilus): > 512 µg/mL | MIC (Staphylococcus aureus [1]): > 512 µg/mL | MIC (Staphylococcus aureus [2]): > 512 µg/mL | MIC (Escherichia coli): > 512 µg/mL | MIC (Pseudomonas aeruginosa [3]): > 512 µg/mL
